≈ marks a conversion by molar mass, not a printed value.
Assays:
Type in all cases: physicochemical
[1] = Solubilizing effect of solubilizer on compound 72 (Comparative Example 1): stepwise solvent addition, sonication and vortex mixing
Protocol: Solubilizing Effect of Solubilizer on Compound 72
The solvent (1 ml) shown in Table 6 was added to compound 72 (5 mg), and solubility was confirmed after sonication and vortex mixing. When not dissolved, the solvent (1 ml) was further added, and solubility was confirmed after sonication and vortex mixing in the same manner. The concentration at the time of dissolution was taken as solubility.

[2] = Solubility of compound 72 in polyoxyethylene glycerol triricinoleate 35/ethanol solution (Experimental Example 1); conditions: compound 72 (5 mg) in 50 μl polyoxyethylene glycerol triricinoleate 35/ethanol (w/w): 20/80 (Formulation 1), 65/35 (2), 100/0 (3)
Protocol: Polyoxyethylene glycerol triricinoleate 35/ethanol solution (50 μl) at a ratio (weight ratio) shown in Table 7 was added to compound 72 (5 mg), the mixture was stirred and the solubility was confirmed. The compound 72 dissolved at any mixing ratio, affording a clear solution.

[3] = Solubility of compound 72 in polyoxyethylene hydrogenated castor oil 50/ethanol solution (Experimental Example 4)
Protocol: Polyoxyethylene hydrogenated castor oil 50/ethanol solution (50 μl) at a ratio (weight ratio) shown in Table 11 was added to compound 72 (5 mg), the mixture was stirred and the solubility was confirmed. The compound 72 dissolved at any mixing ratio, affording a clear solution.

[4] = Solubility of compound 72 in 40% aqueous 2-hydroxypropyl-β-cyclodextrin (Experimental Example 8); conditions: HP-β-CyD concentration 40% aqueous solution
Protocol: 40% Aqueous solution of 2-hydroxypropyl-β-cyclodextrin (hereinafter abbreviated as HP-β-CyD) (1 ml) was added to compound 72 (5 mg), and the solubility was confirmed by sonication and vortex mixing. When not dissolved, 40% HP-β-CyD solution (1 ml) was further added, and solubility was confirmed after sonication and vortex mixing in the same manner. The concentration at the time of dissolution was taken as solubility.

[5] = Solubility of compound 72 in aqueous maltosyl-β-cyclodextrin, HPLC method (Experimental Example 9); conditions: 25° C., 3 hr shaking
Protocol: An aqueous solution of maltosyl-β-cyclodextrin (hereinafter abbreviated as G2-β-CyD) at a concentration shown in Table 18 was added to compound 72 (100 mg) and the mixture was shaken at 25° C. for 3 hr. The solution was filtrated through a 0.45 μm filter, and the solubility of compound 72 was quantitatively determined by HPLC method.

SMILES: CCOC(=O)C1=CCCCC1S(=O)(=O)Nc1ccc(F)cc1Cl (stereo not drawn) [compound 72, d-ethyl 6-[N-(2-chloro-4-fluorophenyl)sulfamoyl]-1-cyclohexene-1-carboxylate]
- Solubility ([1]; solvent 10% Pluronic F68 (polyoxyethylene(160)polyoxypropylene(30)glycol), lower concentrations not examined): Not more than 0.5 mg/ml
- Solubility ([1]; solvent 10% ethanol, lower concentrations not examined): Not more than 0.5 mg/ml
- Solubility ([1]; solvent 10% nicotinamide, lower concentrations not examined): Not more than 0.5 mg/ml
- Solubility ([1]; solvent 10% sodium desoxycholate): about 0.7 mg/ml
- Solubility ([1]; solvent 10% sodium salicylate, lower concentrations not examined): Not more than 0.5 mg/ml
- Solubility ([1]; solvent water): 13 µg/mL (≈ 0.0359 mM)
- Solubility [2]: not less than 100 mg/ml
- Solubility ([3]; compound 72 (5 mg) in 50 μl polyoxyethylene hydrogenated castor oil 50/ethanol (w/w) 20/80): Not less than 100 mg/ml
- Solubility ([3]; compound 72 (5 mg) in 50 μl polyoxyethylene hydrogenated castor oil 50/ethanol (w/w) 65/35): Not less than 100 mg/ml
- solubility of compound 72 in the solvent used ([3]; polyoxyethylene hydrogenated castor oil 50/ethanol, any mixing ratio of Table 11): not less than 100 mg/ml
- Solubility (mg/ml) [4]: About 1.7 mg/ml
- Solubility ([5]; G2-β-CyD concentration 10%): 4900 µg/mL (≈ 13.5 mM)
- Solubility ([5]; G2-β-CyD concentration 20%): 13000 µg/mL (≈ 35.9 mM)
- Solubility ([5]; G2-β-CyD concentration 40%): 31700 µg/mL (≈ 87.6 mM)

Reference: patent publication US7247653B2, “Pharmaceutical composition” (Takeda Pharmaceutical Company Limited, priority 2000, dated 2007)
